The source of these data is PubChem BioAssay (NCI).

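Cultured in 96-well plates, cells were exposed to test compound for 48 hours across five concentrations. GI50 is the concentration that inhibits growth by half. At the TGI there is no net growth.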

Some test systems named below: SF-295 CNS; SF-539 CNS; MOLT-4 leukemia; UACC-62 melanoma; SW-620 colon; HCT-116 colon; NCI-H23 lung; HOP-92 NSCLC; 786-0 renal; SK-MEL-28 melanoma.
Assay in all cases: growth of human tumour cells (NCI), 48 h

Regarding `CN1CCN(C(=O)c2cc(-c3ccc4ncnc(N5CCc6cc(F)c(Cl)cc65)c4c3)cnc2N)CC1`, the GI50 in the assay with SF-295 CNS is 0.288 µM; in the assay with SF-539 CNS, 0.264 µM; in the assay with MOLT-4 leukemia, 0.127 µM; in the assay on UACC-62 melanoma, 0.177 µM; in the assay on SW-620 colon, 0.315 µM; in the assay with HCT-116 colon it was 0.237 µM. Further, the GI50 in the assay with NCI-H23 lung is 0.31 µM; with HOP-92 NSCLC, 0.154 µM; in the assay with 786-0 renal, 0.22 µM; with SK-MEL-28 melanoma it was 0.24 µM. For the same molecule, the TGI in the assay on SF-295 CNS was determined as 1.84 µM; with SF-539 CNS, 1.44 µM; with MOLT-4 leukemia it was 0.664 µM; in the assay with UACC-62 melanoma, 0.67 µM; with SW-620 colon it was 1.82 µM; in the assay on HCT-116 colon, 2.89 µM. Also, the TGI was 5.66 µM in the assay on NCI-H23 lung, 1.08 µM with HOP-92 NSCLC, 1.73 µM in the assay on 786-0 renal and 3.61 µM with SK-MEL-28 melanoma.

As for `O=C1OCC2=C1C(c1ccc(Cl)c(Cl)c1)c1cc3c(cc1N2CCO)OCCO3` (centres undefined), the GI50 is 0.151 µM with SF-295 CNS; 0.177 µM with SF-539 CNS; 0.456 µM in the assay on MOLT-4 leukemia; 0.192 µM in the assay with UACC-62 melanoma; 0.16 µM in the assay on SW-620 colon; 0.213 µM in the assay on HCT-116 colon. In addition, the GI50 was 0.279 µM with NCI-H23 lung, 0.236 µM with HOP-92 NSCLC, 0.277 µM in the assay with 786-0 renal and 0.412 µM in the assay with SK-MEL-28 melanoma. The TGI with SF-295 CNS is 2.84 µM; in the assay on SF-539 CNS it was 1.74 µM; in the assay on MOLT-4 leukemia, over 42.3 µM; in the assay on UACC-62 melanoma it was 10.8 µM; with SW-620 colon it was over 50 µM; in the assay with HCT-116 colon, 8.78 µM. Also, the TGI in the assay on NCI-H23 lung was 21.7 µM; in the assay with HOP-92 NSCLC, 8.2 µM; in the assay on 786-0 renal, 7.62 µM; in the assay on SK-MEL-28 melanoma it was over 38.6 µM.

Turning to `CCCCCCCCCCCCCCCCCC[n+]1ccc2c(C)c3c(c(C)c2c1)c1cc(O)ccc1n3CC`, the GI50 in the assay with SF-295 CNS is 1.42 µM; in the assay on SF-539 CNS it was 2.2 µM; in the assay with MOLT-4 leukemia, 2.53 µM; with UACC-62 melanoma, 1.29 µM; in the assay with SW-620 colon it was 1.79 µM; with HCT-116 colon, 1.19 µM. Further, the GI50 in the assay with NCI-H23 lung was 0.912 µM; in the assay with HOP-92 NSCLC, 1.64 µM; in the assay with 786-0 renal it was 2.21 µM; with SK-MEL-28 melanoma, 1.91 µM. Also, the TGI in the assay with SF-295 CNS is 4.3 µM; with SF-539 CNS, 5.59 µM; with MOLT-4 leukemia it was 14.9 µM; in the assay with UACC-62 melanoma it was 3.38 µM; in the assay on SW-620 colon it was 7.1 µM; in the assay with HCT-116 colon, 12.7 µM. Also, the TGI turned out to be 6.57 µM in the assay on NCI-H23 lung, 5.68 µM in the assay with HOP-92 NSCLC, 10.4 µM in the assay with 786-0 renal and 4.98 µM in the assay with SK-MEL-28 melanoma.

As to `O=C(O)CN1CCN(CC(=O)O)CC(=O)[O][Hg][O]C(=O)C1`, the GI50 is over 100 µM with SF-295 CNS; 60.1 µM with SF-539 CNS; 9.02 µM with MOLT-4 leukemia; 18.3 µM in the assay with UACC-62 melanoma; 19.6 µM with SW-620 colon; 17.9 µM in the assay on HCT-116 colon. The GI50 was 21.2 µM in the assay with NCI-H23 lung, 20.6 µM with HOP-92 NSCLC, 17.1 µM in the assay with 786-0 renal and 19.2 µM in the assay on SK-MEL-28 melanoma. Moreover, the TGI was over 100 µM in the assay on SF-295 CNS; over 100 µM in the assay with SF-539 CNS; 31.9 µM in the assay on MOLT-4 leukemia; 32.4 µM in the assay with UACC-62 melanoma; 52.7 µM in the assay on SW-620 colon; 33.7 µM in the assay on HCT-116 colon. Besides, the TGI with NCI-H23 lung stood at 47.2 µM; with HOP-92 NSCLC, 37.8 µM; in the assay with 786-0 renal, 32.2 µM; in the assay on SK-MEL-28 melanoma, 34.8 µM.

With `Cc1cccc(C)c1NC(=O)/C(=N/NC(N)=S)C(C)C(=O)c1ccc(Cl)cc1` (centres undefined), the TGI with SF-295 CNS, with SF-539 CNS, with MOLT-4 leukemia, with UACC-62 melanoma, in the assay on SW-620 colon and in the assay on HCT-116 colon was over 100 µM throughout. Further, the TGI in the assay with NCI-H23 lung, in the assay with HOP-92 NSCLC, with 786-0 renal and with SK-MEL-28 melanoma was over 100 µM each time.

`Cc1ccc(/C=N\NC(=O)c2[nH]c3ccc(F)cc3c2-c2ccccc2)cc1`: the GI50 is 0.0266 µM in the assay with SF-295 CNS; 0.0297 µM in the assay with SF-539 CNS; 0.0421 µM in the assay with MOLT-4 leukemia; 0.0516 µM with UACC-62 melanoma; 0.0428 µM with SW-620 colon; 0.027 µM in the assay with HCT-116 colon. The GI50 with NCI-H23 lung was 0.0374 µM; in the assay on HOP-92 NSCLC, 0.0363 µM; in the assay with 786-0 renal, 0.0387 µM; with SK-MEL-28 melanoma, 1.15 µM. Moreover, the TGI in the assay on SF-295 CNS was 1.2 µM; with SF-539 CNS it was 0.965 µM; with MOLT-4 leukemia it was over 39.5 µM; with UACC-62 melanoma, over 58.6 µM; in the assay with SW-620 colon it was over 100 µM; in the assay with HCT-116 colon, 0.855 µM. The TGI with NCI-H23 lung was over 43.8 µM; in the assay on HOP-92 NSCLC it was 50.3 µM; in the assay with 786-0 renal it was 23.2 µM; in the assay on SK-MEL-28 melanoma, over 100 µM.

As for `COc1cc2c(cc1C1COc3cc4occc4cc3C1=O)OCO2` (centres undefined), the TGI in the assay on SF-295 CNS, in the assay on SF-539 CNS, in the assay with MOLT-4 leukemia, in the assay with UACC-62 melanoma, with SW-620 colon and with HCT-116 colon was over 100 µM in each case. The TGI in the assay with NCI-H23 lung, in the assay with HOP-92 NSCLC, in the assay with 786-0 renal and in the assay with SK-MEL-28 melanoma was over 100 µM in each case.

Take `O=C1CCC(N2Cc3cc(CNC(=O)C(F)(F)c4ccc(Cl)cc4)ccc3C2=O)C(=O)N1` (centres undefined): the GI50 is over 100 µM in the assay on SF-295 CNS; over 100 µM with SF-539 CNS; 0.0148 µM in the assay on MOLT-4 leukemia; over 100 µM with UACC-62 melanoma; 0.11 µM in the assay on SW-620 colon; over 100 µM with HCT-116 colon. Also, the GI50 in the assay with NCI-H23 lung was over 100 µM; with HOP-92 NSCLC it was 0.0741 µM; in the assay with 786-0 renal, over 100 µM; in the assay with SK-MEL-28 melanoma it was over 100 µM. Further, the TGI in the assay on SF-295 CNS, in the assay with SF-539 CNS, in the assay on UACC-62 melanoma, in the assay with SW-620 colon, with HCT-116 colon and in the assay on NCI-H23 lung was over 100 µM throughout. Also, the TGI with HOP-92 NSCLC, in the assay with 786-0 renal and with SK-MEL-28 melanoma was over 100 µM in each case.

`CC(=O)Nc1ccc(SC#N)c2c(NC(C)=O)cccc12`: the TGI with SF-295 CNS is over 100 µM; in the assay with SF-539 CNS, over 100 µM; in the assay with MOLT-4 leukemia, over 82.1 µM; with UACC-62 melanoma, over 100 µM; with SW-620 colon, over 100 µM; in the assay with HCT-116 colon it was over 100 µM. The TGI in the assay on NCI-H23 lung was over 100 µM; with HOP-92 NSCLC, over 94.8 µM; with 786-0 renal it was over 100 µM; in the assay on SK-MEL-28 melanoma it was over 100 µM.

With `COC(=O)C1CC2CC(=NNC(N)=O)CC2C1` (centres undefined), the TGI in the assay on SF-295 CNS, in the assay with SF-539 CNS, with MOLT-4 leukemia, with UACC-62 melanoma, in the assay with SW-620 colon and in the assay on HCT-116 colon was over 100 µM each time. Moreover, the TGI in the assay with NCI-H23 lung, in the assay on HOP-92 NSCLC, with 786-0 renal and in the assay on SK-MEL-28 melanoma was over 100 µM each time.

Turning to `CN[C@@H](C)C(=O)N[C@H](C(=O)N1CCC[C@H]1C(=O)Nc1sc(-c2ncco2)nc1-c1ccccc1)C1CCCCC1`, the GI50 in the assay with SF-295 CNS was 52.9 µM; in the assay on SF-539 CNS it was 0.957 µM; with MOLT-4 leukemia it was 29.2 µM; in the assay with UACC-62 melanoma, 18.6 µM; in the assay with SW-620 colon, 78.4 µM; in the assay on HCT-116 colon, 25.6 µM. Further, the GI50 with NCI-H23 lung was 25.8 µM; with HOP-92 NSCLC, 3.52 µM; with 786-0 renal, 28.2 µM; in the assay on SK-MEL-28 melanoma it was 16.3 µM. The TGI was over 100 µM with SF-295 CNS; 17.8 µM in the assay with SF-539 CNS; 88.1 µM in the assay on MOLT-4 leukemia; 39.2 µM with UACC-62 melanoma; over 100 µM in the assay with SW-620 colon; over 85.4 µM with HCT-116 colon. Besides, the TGI is over 100 µM with NCI-H23 lung, 13.4 µM in the assay with HOP-92 NSCLC, over 67.2 µM with 786-0 renal and 33.9 µM with SK-MEL-28 melanoma.

Turning to `COc1cccc(OC(=O)c2ccc(C(F)(F)F)nc2Nc2cc(Cl)ccc2C)c1`, the GI50 in the assay on SF-295 CNS is 23.9 µM; in the assay on SF-539 CNS it was 8.75 µM; in the assay on MOLT-4 leukemia it was 3.11 µM; in the assay with UACC-62 melanoma, 3.3 µM; with SW-620 colon it was 5.31 µM; in the assay on HCT-116 colon, 16.9 µM. The GI50 in the assay on NCI-H23 lung was 20.2 µM; in the assay on HOP-92 NSCLC, 1.63 µM; in the assay with 786-0 renal, 10.7 µM; in the assay on SK-MEL-28 melanoma, 9.26 µM. Also, the TGI came to 48.2 µM with SF-295 CNS; 32 µM with SF-539 CNS; 7.99 µM with MOLT-4 leukemia; 20 µM in the assay on UACC-62 melanoma; 50.7 µM in the assay on SW-620 colon; 55.8 µM in the assay on HCT-116 colon. Besides, the TGI in the assay with NCI-H23 lung is 49.5 µM; in the assay on HOP-92 NSCLC, 6.98 µM; in the assay with 786-0 renal, 24.5 µM; with SK-MEL-28 melanoma, over 100 µM.

On to `O=S(=O)(c1ccc(Cl)cc1)C(Cl)(Cl)Cl`, for which the GI50 in the assay with SF-295 CNS is 5.3 µM; with SF-539 CNS, 3.17 µM; with MOLT-4 leukemia, 0.91 µM; with UACC-62 melanoma, 4.75 µM; in the assay with SW-620 colon, 2.58 µM; in the assay with HCT-116 colon, 2.43 µM. Also, the GI50 in the assay with NCI-H23 lung was 2.69 µM; with HOP-92 NSCLC, 1.71 µM; in the assay with 786-0 renal it was 0.968 µM; in the assay with SK-MEL-28 melanoma, 4.47 µM. In addition, the TGI in the assay with SF-295 CNS was 23 µM; in the assay on SF-539 CNS, 29 µM; in the assay on MOLT-4 leukemia, over 44.3 µM; with UACC-62 melanoma it was 25 µM; with SW-620 colon, 11.7 µM; in the assay on HCT-116 colon it was 11.3 µM. The TGI in the assay with NCI-H23 lung is 17.7 µM; in the assay on HOP-92 NSCLC it was 23.2 µM; with 786-0 renal, 18.1 µM; in the assay on SK-MEL-28 melanoma, 24 µM.
